Blank lines part the entries; values can stand above or below the molecule they belong to.
Columns and labels:
[1] = biological target: T1, calf intestinal alkaline phosphatase (CIAP) (Bos taurus, UniProt P19111); set-up: purchased Sigma P0114; settings: Blake et al 1982 method; cited from earlier work
[2] = biological target: T2, lactic acid dehydrogenase (LDH) (Oryctolagus cuniculus, UniProt P13491); experiment: LDH kinetics and competitive inhibition by 4-nitroaniline (simultaneous GGT/LDH assay); format: biochemical, rabbit
T2 construct: purchased Shanghai Shangon NB0642

[3] = test system: γ-glutamyltransferase (GGT); settings: preset for data processing; cited from earlier work
[4] = biological target: T1, calf intestinal alkaline phosphatase (CIAP)
[5] = Specific activity of penicillin G-labeled β-D-galactosidase after labeling; format: biochemical; settings: 50 mmol/L Tris-HCl pH 7.5
Protocol: b) mixing 50 ul solution of the activated penicillin G with 0.50 ml of 0.44 mg β-D-galactosidase dissolved in the sodium phosphate buffer at pH 7.4, keeping the mixture at 4° C. for reaction for 120 min; the resulting mixture of the labeled β-D-galactosidase is passed through Sephadex G25 column (15 cm height and 10 mm inner diameter with a packed volume of 10 ml, equilibrated with 50 mmol/L Tris-HCl at pH 7.5) and the column is eluted with the same Tris-HCl buffer to monitor the absorbance at 280 nm; the first peak of the elution is the labeled β-D-galactosidase, with a total of 0.22 mg protein in 2.0 ml elution solution;
c) determining the specific activity after labeling: in 50 mmol/L Tris-HCl at pH 7.5, the specific activity of the labeled β-D-galactosidase is about 30 μmol·(L·min·mg)^−1 on 4-nitrophenyl-β-D-galactoside, indicating the reservation of nearly 100% activity; meanwhile, the specific activity on 4-nitro-1-napthyl-β-D-galactoside in the same buffer, its specific activity is about 100 (L·min·mg)^−1, but just about 70% of that before modification;

T1 sequence (P19111 20-506): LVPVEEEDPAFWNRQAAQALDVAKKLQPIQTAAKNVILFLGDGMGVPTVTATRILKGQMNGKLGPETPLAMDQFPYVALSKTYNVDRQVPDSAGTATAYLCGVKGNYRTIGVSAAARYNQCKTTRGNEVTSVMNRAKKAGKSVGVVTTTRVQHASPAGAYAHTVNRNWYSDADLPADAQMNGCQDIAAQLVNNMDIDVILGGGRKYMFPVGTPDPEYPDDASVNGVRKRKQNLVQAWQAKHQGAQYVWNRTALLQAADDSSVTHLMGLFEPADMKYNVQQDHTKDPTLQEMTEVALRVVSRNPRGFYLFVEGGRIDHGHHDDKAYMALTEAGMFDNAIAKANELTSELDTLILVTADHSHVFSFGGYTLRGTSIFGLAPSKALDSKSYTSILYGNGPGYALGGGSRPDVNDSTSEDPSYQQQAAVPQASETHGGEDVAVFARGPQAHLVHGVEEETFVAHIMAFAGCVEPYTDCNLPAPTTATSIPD

Molecule: phenolphthalein monophosphate
- specific activity of CIAP relative to that on p-nitrophenylphosphate [1]: about 7%

Molecule: Nc1ccc([N+](=O)[O-])cc1 [4-nitroaniline]
- Ki [2]: 24 µM

Molecule: N[C@@H](CCC(=O)Nc1ccc([N+](=O)[O-])cc1)C(=O)O [γ-glutamyl-(4-nitro)-aniline]
- Michaelis constant of GGT for substrate (preset) [3]: 1.00 mmol/L

Molecule: O=[N+]([O-])c1ccc(OP(=O)(O)O)c2ccccc12 [4NNPP, 4-nitronaphthylphosphate]
- specific activity of CIAP relative to that on 4-nitrophenylphosphate [4]: about 40%
- Michaelis constant of CIAP ([4]; 4NNPP as chromogenic substrate): about 10 μmol/L

Molecule: NC(=O)C1=CN([C@@H]2O[C@H](COP(=O)(O)OP(=O)(O)OC[C@H]3O[C@@H](n4cnc5c(N)ncnc54)[C@H](O)[C@@H]3O)[C@@H](O)[C@H]2O)C=CC1 [NADH, reduced form of nicotine adenine nucleotide]
- Michaelis constant of LDH for NADH ([2]; pyruvate 3.0 mmol/L, pH 7.0): 0.040 mmol/L

- reservation of activity after labeling (4-nitrophenyl-β-D-galactoside) [5]: about 100%
Molecule: labeled β-D-galactosidase: β-D-galactosidase (Sigma G4155) modified with activated penicillin G
- specific activity on 4-nitro-1-napthyl-β-D-galactoside [5]: about 100 (L·min·mg)^−1
- specific activity on 4-nitro-1-napthyl-β-D-galactoside relative to that before modification [5]: about 70%
- specific activity on 4-nitrophenyl-β-D-galactoside [5]: about 30 μmol·(L·min·mg)^−1

Source: patent US9611502B2, “Method for simultaneously measuring activity of various enzymes by using multi-wavelength absorption single channel” (Chongqing Medical University, priority 2012, dated 2017)
